Test results: US20040191833A1, “Selective activation of cellular activities mediated through a common toll-like receptor” (3M Innovative Properties Company, priority 2003, published 2004)

Assays:
[1] = target: T1, human TLR7 (Homo sapiens, UniProt Q9NYK1); assay: TLR7 activation in Namalwa cells (IFN-α1 promoter luciferase reporter, N-TLR7/N-vector); format: cell-based; settings: final IRM concentration 10 μM, 18 hours, normalized to the DMSO without compound control
T1 construct: expressed in transfected cells; host or cells: Namalwa cells (ATCC CRL-1432), pCI-neo vector, electroporated, G418 selected, with pIFN-α1-luc reporter
T1 sequence (Q9NYK1 27-1049): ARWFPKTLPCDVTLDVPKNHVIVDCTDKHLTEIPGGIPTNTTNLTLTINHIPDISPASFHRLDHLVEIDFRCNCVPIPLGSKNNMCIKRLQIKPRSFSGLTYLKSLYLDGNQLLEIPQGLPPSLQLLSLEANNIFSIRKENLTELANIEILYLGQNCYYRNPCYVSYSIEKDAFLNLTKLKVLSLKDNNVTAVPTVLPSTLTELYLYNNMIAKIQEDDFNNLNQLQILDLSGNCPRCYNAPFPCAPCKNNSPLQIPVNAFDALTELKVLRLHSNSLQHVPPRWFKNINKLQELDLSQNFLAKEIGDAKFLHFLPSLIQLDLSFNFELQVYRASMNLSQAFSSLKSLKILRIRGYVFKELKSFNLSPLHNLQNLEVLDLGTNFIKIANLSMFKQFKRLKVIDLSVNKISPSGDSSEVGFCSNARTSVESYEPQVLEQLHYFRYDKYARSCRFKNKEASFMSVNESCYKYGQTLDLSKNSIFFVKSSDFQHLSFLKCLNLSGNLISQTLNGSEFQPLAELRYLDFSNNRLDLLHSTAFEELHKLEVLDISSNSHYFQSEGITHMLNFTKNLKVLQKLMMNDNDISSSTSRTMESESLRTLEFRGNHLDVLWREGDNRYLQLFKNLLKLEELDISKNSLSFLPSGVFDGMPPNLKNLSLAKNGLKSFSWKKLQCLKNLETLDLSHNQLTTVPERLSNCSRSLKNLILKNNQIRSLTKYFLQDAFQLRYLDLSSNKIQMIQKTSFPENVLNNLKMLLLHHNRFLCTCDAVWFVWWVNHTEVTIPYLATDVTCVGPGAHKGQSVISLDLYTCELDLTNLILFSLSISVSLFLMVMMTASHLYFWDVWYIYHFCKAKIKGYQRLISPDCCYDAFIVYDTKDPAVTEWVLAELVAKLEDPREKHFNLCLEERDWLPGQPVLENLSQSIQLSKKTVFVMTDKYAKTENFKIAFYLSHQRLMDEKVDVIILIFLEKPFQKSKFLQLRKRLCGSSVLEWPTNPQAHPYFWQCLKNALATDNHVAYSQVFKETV
Experimental: (§1) In one embodiment, exemplified in Example 1, selective modulation of TLR7-mediated NF-κB activation and TLR7-mediated IFN-α1 induction were assayed. NF-κB activation was measured in genetically modified HEK293 cells (H-TLR7) by detecting TLR7-mediated NF-κB-dependent transcription of a luciferase reporter. IFN-α1 induction was measured in genetically modified Namalwa cells (N-TLR7) by detecting TLR-mediated IFN-α1-induced transcription of a luciferase reporter. Results are shown in Table 2 and are expressed as the fold increase in TLR7-mediated luciferase signal—(H-TLR7/H-vector) and (N-TLR7/N-vector), respectively—normalized to a control in which the cells were treated with vehicle that contained no IRM compound. In this assay, a compound was considered to induce the TLR7-mediated cellular activity if the compound generated at least a two-fold increase in the luciferase signal compared to the vector control.
Unless otherwise indicated, all incubations were performed at 37° C. with 5% CO2 at 98% humidity.
Culture medium was prepared from complete RPMI 1640 medium (BioSource International, Inc., Camarillo, Calif.). Fetal bovine serum (Atlas Biologicals, Inc., Ft. Collins, Colo.) was added to a final concentration of 7.5% (vol/vol); L-glutamine (BioSource International, Inc.) was added to 5 mM; and sodium pyruvate (BioSource International, Inc.) was added to 1 mM.
Namalwa cells were grown by incubation in culture medium overnight. Cells were harvested by centrifugation in a tabletop centrifuge (1200 RPM for 5 minutes), and then resuspended in phosphate buffered sucrose to a concentration of 1.3×10^7 cells/mL.
For each transfection, a 750 μL aliquot of the cell suspension was placed in an electroporation cuvette with 4 mm gaps. Each aliquot received transfection DNA: 10 μg of pGL3-Enhancing vector (Promega Corp., Madison, Wis.) containing the human IFN-α1 promoter cloned into the BglII site (pIFN-α1-luc), and 10 μg of pCI-neo mammalian expression vector (Promega Corp.) either (1) unmodified (N-vector) or (2) containing an expressible human TLR7 gene (N-TLR7). The cell and vector mixtures were incubated at room temperature for 5 minutes. The cells were electroporated using a BioRad Gene Pulser (BioRad Laboratories, Hercules, Calif.) set to at 500 μF capacitance and […], then incubated at room temperature for 5 minutes.
The electroporated cells were suspended in 10 mL of culture medium and incubated overnight. Dead cells and debris were removed after 24 hours using a MACS Dead Cell Removal kit (Miltenyi Biotec, Auburn, Calif.). Cells were resuspended in 10 mL of culture medium and incubated for an additional 24 hours.
Transfected cells were selected by adding G418 (Promega Corp., Madison, Wisc.) to a final concentration of 1 mg/mL and incubating the cells for seven days.
The selected transfected cells were counted and resuspended to a concentration of 1×10^6 cell per mL in culture medium. 100 μl aliquots of cells were placed in the wells of a white-walled, white-bottomed 96-well plate (Corning, Inc. Corning, N.Y.). 1.0 μL of an IRM compound from Table 1 (prepared at 1 mM in 100% DMSO) was added to some cell aliquots so that the final concentration of IRM compound was 10 μM. As a positive control, some cell aliquots were incubated with Sendai virus instead of IRM compound. As a negative control, some cell aliquots were incubated with DMSO without IRM compound. In all cases, the cells were incubated for 18 hours.
The plates were equilibrated to room temperature before 1 volume of reconstituted LucLight Plus (Packard Instruments, Meriden, Conn.) was added to each aliquot of cells. Each well of the plate was read on an LJL Analyst (LJL Biosystems, Inc., Sunnyvale, Calif.) set with a 5 minute dark adapt.
(§2) The data are expressed as fold increase in TLR7-mediated luciferase signal—(H-TLR7/H-vector) and (N-TLR7/N-vector), respectively—normalized to the DMSO without compound control.

[2] = target: T1, human TLR7; assay: TLR7 activation in HEK293 cells (NF-kB-luc luciferase reporter, H-TLR7/H-vector); format: cell-based; settings: final IRM concentration 10 μM, 16 hours, normalized to the DMSO without compound control
Experimental: as §1
HEK293 medium was prepared from 90% Minimum Essential Medium (MEM) with 2 mM L-glutamine and Earle's Balanced Salt Solution (Invitrogen Corp., Rockville, Md.) adjusted to contain 1.5 g/L sodium bicarbonate, 0.1 mM non-essential amino acids, and 1.0 mM sodium pyruvate; 10% heat-inactivated fetal calf serum. HEK293 cells were cultured by incubating cells in HEK293 medium overnight at 37° C, 8% CO2.
Twenty-four hours before transfection, HEK293 cells were adhered to a 10 cm dish (Corning 430167, Corning Inc., Corning, N.Y.) at 37° C., 8% CO2. The cells were co-transfected with (1) pIRES (BD Biosciences Clontech, Palo Alto, Calif.) either (a) unmodified (H-vector), or (b) containing an expressible human TLR7 gene (H-TLR7), and (2) NF-kB-luc reporter (Stratagene, La Jolla, Calif.) in a 10:1 ratio with Fugene 6 transfection reagent (Roche Diagnostics Corp., Indianapolis, Ind.) following the manufacturer's instructions. The plates were incubated for 24 hours following transfection and then selected in G-418 (400 μg/mL) for two weeks. The G-418-resistant cells containing either the expressible TLR7 gene or the empty vector were expanded in HEK293 medium supplemented with G-418 for stimulation experiments.
The transfected cells were plated in white opaque 96 well plates (Costar 3917, Corning Inc., Corning, N.Y.) at a concentration of 5×10^4 cells per well in 100 μL of HEK293 media and incubated at 37° C., 8% CO2 for 4 hours. The cells were stimulated with 1 μL of IRM compounds at 1 mM in DMSO (final IRM concentration of 10 μM) or 1 μL DMSO as a control. The plates were then incubated an additional 16 hours at 37° C., 5% CO2. The luciferase signal was read using the LucLite kit (Packard Instrument Co., Meriden, Conn.). Luminescence was measured on an LMAX luminometer (Molecular Devices Corp., Sunnyvale, Calif.).
as §2

Row | Structure (SMILES) | N-TLR7: fold increase in TLR7-mediated luciferase signal (N-TLR7/N-vector), IFN-α1 promoter reporter [1] [fold] | H-TLR7: fold increase in TLR7-mediated luciferase signal (H-TLR7/H-vector), NF-κB-dependent reporter [2] [fold]
1 | COCCc1nc2c(N)nc3c(c2n1CC(C)(C)NS(C)(=O)=O)CCCC3 [IRM25, N-{2-[4-amino-2-(2-methoxyethyl)-6,7,8,9-tetrahydro-1H-imidazo[4,5-c]quinolin-1-yl]-1,dimethylethyl}methanesulfonamide] | 3.0 | 7.6
2 | CCCCc1nc2c(N)nc3ccccc3c2n1CCCCCS(C)(=O)=O [IRM23, 2-butyl-1-[5-(methylsulfonyl)pentyl]-1H-imidazo[4,5-c]quinolin-4-amine] | 2.8 | 9.4
3 | CCCCc1nc2c(N)nc3cccnc3c2n1CCNC(=O)C(N)CC(C)C (centres unmarked) [IRM11, N^1-[2-(4-amino-2-butyl-1H-imidazo[4,5-c][1,5]naphthyridin-1-yl)ethyl]-2-amino-4-methylpentanamide] | 2.8 | 0.5
4 | Cc1nc2c(N)nc3ccccc3c2n1CCOCCNC(=O)c1ccccc1 [IRM17, N-{2-[2-(4-amino-2-methyl-1H-imidazo[4,5-c]quinolin-1-yl)ethoxy]ethyl}benzamide] | 3.1 | 0.4
5 | CCC(C)NC(=S)NCCn1c(CCOC)nc2c(N)nc3ccccc3c21 (centres unmarked) [IRM24, N-{2-[4-amino-2-(2-methoxyethyl)-1H-imidazo[4,5-c]quinolin-1-yl]ethyl}-N′-sec-butylthiourea] | 3.2 | 7.9
6 | CCCCc1nc2c(N)nc(C)c(C)c2n1CCCCNC(=O)c1ccccc1 [IRM13, N-[4-(4-amino-2-butyl-6,7-dimethyl-1H-imidazo[4,5-c]pyridin-1-yl)butyl]benzamide] | 2.6 | 1.0
7 | COCCc1nc2c(N)nc3ccccc3c2n1CC(C)(C)CNC(=O)Nc1ccccc1 [IRM4, N-{3-[4-amino-2-(2-methoxyethyl)-1H-imidazo[4,5-c]quinolin-1-yl]-2,2-dimethylpropyl}-N′-phenylurea] | 1.6 | 15.0
8 | CCCc1nc2c(N)nc3ccccc3c2n1CCCCS(C)(=O)=O [IRM21, 1-[4-(methylsulfonyl)butyl]-2-propyl-1H-imidazo[4,5-c]quinolin-4-amine] | 3.8 | 0.7
9 | Cc1nc2c(N)nc3ccccc3c2n1CCOC/C=C/c1ccccc1 [IRM5, 2-methyl-1-(2-{[(2E)-3-phenylprop-2-enyl]oxy}ethyl)-1H-imidazo[4,5-c]quinolin-4-amine] | 1.6 | 3.4
10 | COCCOCc1nc2c(N)nc3ccccc3c2n1CCOc1ccccc1 [IRM15, 2-[(2-methoxyethoxy)methyl]-1-(2-phenoxyethyl)-1H-imidazo[4,5-c]quinolin-4-amine] | 2.7 | 0.8
